# What was measured:
# [1] = target: T1, human TRPV2 (Homo sapiens, UniProt Q9Y5S1); experiment: Whole-cell patch clamp, HEK293 cells transiently transfected with human TRPV2; type: cell-based; conditions: 10 μM ruthenium red; 100 μM Δ^9-THC
# T1 construct: A cDNA fragment encoding the full-length human TRPV2 was subcloned into pCI-neo or pcDNA3; expressed in transfected cells; host or cells: HEK293, transient, pCI-neo or pcDNA3
# T1 sequence (Q9Y5S1 1-764): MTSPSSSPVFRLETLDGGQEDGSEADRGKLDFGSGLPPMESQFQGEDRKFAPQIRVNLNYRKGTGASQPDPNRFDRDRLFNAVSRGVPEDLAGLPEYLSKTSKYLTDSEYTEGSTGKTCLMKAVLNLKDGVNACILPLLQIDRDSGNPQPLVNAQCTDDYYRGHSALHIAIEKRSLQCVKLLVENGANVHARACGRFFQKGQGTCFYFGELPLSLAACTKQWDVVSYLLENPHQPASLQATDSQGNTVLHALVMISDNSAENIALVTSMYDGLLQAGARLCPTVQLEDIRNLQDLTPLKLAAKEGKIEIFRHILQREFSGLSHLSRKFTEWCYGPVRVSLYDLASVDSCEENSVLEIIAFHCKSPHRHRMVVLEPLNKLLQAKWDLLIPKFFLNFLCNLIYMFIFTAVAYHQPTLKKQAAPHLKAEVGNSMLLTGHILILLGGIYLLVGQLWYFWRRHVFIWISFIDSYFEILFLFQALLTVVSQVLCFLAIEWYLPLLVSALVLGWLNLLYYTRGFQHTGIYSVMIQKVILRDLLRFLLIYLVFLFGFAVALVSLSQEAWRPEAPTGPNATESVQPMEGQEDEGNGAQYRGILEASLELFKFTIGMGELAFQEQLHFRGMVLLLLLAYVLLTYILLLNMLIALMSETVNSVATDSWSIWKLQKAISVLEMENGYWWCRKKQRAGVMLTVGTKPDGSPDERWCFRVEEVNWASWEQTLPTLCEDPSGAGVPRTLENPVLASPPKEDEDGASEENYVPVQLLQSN
# Method: A cDNA fragment encoding the full-length human TRPV2 was subcloned into pCI-neo or pcDNA3 mammalian expression vectors. The expression constructs were then transfected into HEK293 cells with FuGene6 transfection reagent (Roche, Indianapolis, Ind.) according to vendor's protocol. TRPV2-expressing HEK293 cells were cultured in DMEM supplemented with 10% fetal bovine serum, 100 units/ml penicillin, and 100 μg/ml streptomycin for 48-72 hr and either evaluated for transient expression and/or activity, or dosed with 400 μg/ml G418 to select for stably-transfected TRPV2-expressing cell clones. Cells were maintained at 37° C. and in 5% CO2.
# To further confirm the Δ^9-THC effect on TRPV2, whole-cell patch clamp studies were performed. The extracellular solution contained (in mM): NaCl, 132; CaCl, 1.8; KCl, 5.4; MgCl2, 0.8; HEPES, 10; glucose, 10; pH=7.4. The intracellular solution used to fill recording pipettes contained (in mM): CsCl, 145; EGTA, 5; HEPES, 10; glucose, 5; pH=7.4. […] Currents were amplified by a patch clamp amplifier and filtered at 2 kHz (Axopatch 200B), sampled at 10 kHz using Digidata 1322A and acquired and analyzed with pClamp 9.0 (all instruments from Molecular Devices, CA). […]
# [2] = target: T2, rat TRPV2 (Rattus norvegicus, UniProt Q9WUD2, A713V/L151P/T158I); experiment: Whole-cell patch clamp, HEK293 cells stably expressing rat TRPV2; type: cell-based; conditions: 10 μM ruthenium red; 100 μM Δ^9-THC
# T2 construct: A cDNA fragment encoding the full-length rat TRPV2 was subcloned into pCI-neo; expressed in transfected cells
# T2 sequence (Q9WUD2 1-761 L151P/T158I/A713V): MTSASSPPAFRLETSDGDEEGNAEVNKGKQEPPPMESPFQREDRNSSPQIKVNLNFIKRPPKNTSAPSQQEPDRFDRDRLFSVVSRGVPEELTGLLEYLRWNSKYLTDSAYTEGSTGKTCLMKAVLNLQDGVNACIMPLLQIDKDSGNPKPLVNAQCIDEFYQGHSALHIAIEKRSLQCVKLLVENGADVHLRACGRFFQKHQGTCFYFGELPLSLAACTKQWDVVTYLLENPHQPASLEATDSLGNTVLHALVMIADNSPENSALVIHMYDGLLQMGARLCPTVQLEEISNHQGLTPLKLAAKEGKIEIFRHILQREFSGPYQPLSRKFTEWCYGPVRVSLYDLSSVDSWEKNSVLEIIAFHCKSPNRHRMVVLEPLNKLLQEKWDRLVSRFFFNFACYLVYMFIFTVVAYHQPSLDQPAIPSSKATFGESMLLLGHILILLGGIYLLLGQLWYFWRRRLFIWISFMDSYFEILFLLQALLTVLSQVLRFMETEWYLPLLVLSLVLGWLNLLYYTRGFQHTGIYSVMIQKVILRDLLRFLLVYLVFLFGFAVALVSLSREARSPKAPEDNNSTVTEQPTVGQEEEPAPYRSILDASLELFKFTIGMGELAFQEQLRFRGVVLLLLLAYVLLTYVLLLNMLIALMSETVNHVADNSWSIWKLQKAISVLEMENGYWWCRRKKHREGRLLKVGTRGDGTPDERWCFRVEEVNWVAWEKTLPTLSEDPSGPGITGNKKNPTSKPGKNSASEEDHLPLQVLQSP
# Method: To further confirm the Δ^9-THC effect on TRPV2, whole-cell patch clamp studies were performed. The extracellular solution contained (in mM): NaCl, 132; CaCl, 1.8; KCl, 5.4; MgCl2, 0.8; HEPES, 10; glucose, 10; pH=7.4. The intracellular solution used to fill recording pipettes contained (in mM): CsCl, 145; EGTA, 5; HEPES, 10; glucose, 5; pH=7.4. Recordings were performed using the conventional whole-cell patch clamp technique, 2-3 days after transient transfection of human TRPV2 into HEK293 cell or 1-2 days after plating HEK293 cells stably expressing rat TRPV2 onto glass coverslips. Currents were amplified by a patch clamp amplifier and filtered at 2 kHz (Axopatch 200B), sampled at 10 kHz using Digidata 1322A and acquired and analyzed with pClamp 9.0 (all instruments from Molecular Devices, CA). A 600 ms voltage ramp was given once every five seconds from −100 mV to +60 mV. The holding potential between voltage ramps was −100 mV. Extracellular solutions were applied to the cell at 0.5 ml/min via a gravity-fed perfusion system. All experiments were performed at 22° C.
compound,measurement,setting,value
N.N.N.N.N.N.N.N.N.N.N.N.N.N.[Cl-].[Cl-].[Cl-].[Cl-].[Cl-].[Cl-].[O-2].[O-2].[Ru+3].[Ru+3].[Ru+4] [ruthenium red],"inhibition of Δ^9-THC-activated currents, human TRPV2",[1],significantly inhibited
same,"inhibition of Δ^9-THC-activated currents, rat TRPV2",[2],significantly inhibited

# From patent US7575882B2, “Compositions and methods for identifying modulators of TRPV2” (Janssen Pharmaceutica N. V., priority 2005, dated 2009)
